Patent publication US20170136031A1, “PLATINUM COMPLEXES AS ANTICANCER AGENTS” (KING FAHD UNIVERSITY OF PETROLEUM AND MINERALS, priority 2014, published 2017)

Experiments:
Type in all cases: cell-based
[1] = system: MCF7 (human breast cancer) cell line; test: In vitro cytotoxicity against MCF7 cell line; settings: from curves of complex concentration vs percentage viability
[2] = system: HeLa (human cervical cancer) cell line; test: In vitro cytotoxicity against HeLa cell line; settings: read-out: IC50 values against HeLa cell line (unit inferred)
[3] = system: A549 (human lung carcinoma) cell line; test: In vitro cytotoxicity against A549 cell line; settings: from curves of complex concentration vs percentage viability
[4] = system: HCT15 (human colon adenocarcinoma) cell line; test: In vitro cytotoxicity against HCT15 cell line; settings: from curves of complex concentration vs percentage viability

`N.N.[Cl][Pt][Cl]` [Cisplatin, cisplatin] gave an IC50 [1] of 22.4 µM, an IC50 [2] of 19.4 µM and an IC50 [3] of 41.6 µM. It also gave an IC50 [4] of 29.5 µM.
